Our source for the inhibition and IC50 values is patent publication US8546579B2, “Bicycloheteroaryl compounds as P2X7 modulators and uses thereof” (Evotec (US) Inc., priority 2006, dated 2013).

SMILES strings stand for the structures. Read-outs that look alike come from different tables or passages of the source.

In this assay the target is T1, P2X7 receptor (Homo sapiens, UniProt Q99572).
T1 construct: host or cells: THP-1 cells differentiated with LPS and IFN-γ
T1 sequence (Q99572 1-595): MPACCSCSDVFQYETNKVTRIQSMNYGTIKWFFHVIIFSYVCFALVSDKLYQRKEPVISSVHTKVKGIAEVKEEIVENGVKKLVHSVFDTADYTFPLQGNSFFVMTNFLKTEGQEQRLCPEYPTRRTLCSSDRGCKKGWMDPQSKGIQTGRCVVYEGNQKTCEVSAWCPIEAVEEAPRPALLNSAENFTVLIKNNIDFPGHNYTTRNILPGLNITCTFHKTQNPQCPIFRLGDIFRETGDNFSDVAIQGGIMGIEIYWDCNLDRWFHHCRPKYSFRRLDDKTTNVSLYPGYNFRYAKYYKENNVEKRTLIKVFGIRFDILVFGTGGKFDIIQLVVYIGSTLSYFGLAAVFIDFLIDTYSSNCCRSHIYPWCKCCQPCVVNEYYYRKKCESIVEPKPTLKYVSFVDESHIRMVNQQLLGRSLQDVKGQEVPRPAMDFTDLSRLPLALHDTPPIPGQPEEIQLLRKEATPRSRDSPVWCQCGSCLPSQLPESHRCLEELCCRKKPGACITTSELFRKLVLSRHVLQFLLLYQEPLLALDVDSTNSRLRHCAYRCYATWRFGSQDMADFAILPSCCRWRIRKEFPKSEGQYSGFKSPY
The assay is described as follows: IL-1β release assay in differentiated THP-1 cells stimulated with BzATP (Example 9). Particulars: for inhibition: THP-1, read-out: IL-1β % Inhib.; for inhibition at 0.3 µM: 0.3 μM compound, read-out: IL-1β % Inhib. @ 0.3 μM; for inhibition at 0.3 µM / inhibition at 0.1 µM: differentiated THP-1 cells, BzATP 250 uM; for inhibition at 0.1 µM: 0.1 μM compound; for IC50: THP-1 cells, BzATP-stimulated IL-1β release, four parameter logistic fit. Details: inhibition: dose or concentration left out as unconfirmed. In kind it is cell-based. An outline of the steps: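 IC50 derived by four-parameter logistic fit of percent inhibition of IL-1β release, measured by ELISA after 45 min stimulation with 250 uM BzATP. Cells: THP-1 differentiated 16 h with 100 ng/mL LPS plus IFN-γ, LPS-primed 2 h, compound added 30 min beforehand.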

[1] abbreviates: "*" class symbols, read-out: IL-1β % Inhib. ("*" symbols: at 0.1 μM).

On to `Cc1ccc(C(=O)Nc2cccc3c(=O)n(Cc4cccnc4)ccc23)cc1Cl` [Compound 1451], for which the inhibition fell in the range of 0 to 25%.

In the case of `COc1ccc(C(=O)Nc2cccc3c(=O)n(Cc4ccc(OC(F)(F)F)cc4)ccc23)c(C)c1` [Compound 1548], the inhibition was 0 to 25%.

On to `Cc1cccc(CC(=O)Nc2cccc3c(=O)n(C)ccc23)c1` [Compound 1298], for which, for the setting “symbols + to ++++”, the inhibition at 0.3 µM is 0 to 25%.

As for `COCCn1ccc2c(NC(=O)c3ccc(C(C)(C)C)cc3)cccc2c1=O` [Compound 1430], the inhibition is 0 to 25%.

Take `COc1ccccc1CCC(=O)Nc1cccc2c(=O)n(CCCN3CCCC3=O)ccc12` [Compound 1518]: the inhibition was in the range of 0 to 25%.

In the case of `CC(c1ccccn1)n1ccc2c(NC(=O)[C@H](C)c3ccc(Cl)c(Cl)c3)cccc2c1=O` (stereo partly shown) [Compound 1636], the inhibition at 0.1 µM under setting [1] was 26 to 50%.

Turning to `O=C(Nc1cccc2c(=O)n(Cc3cccnc3)ccc12)c1ccc2c(c1)OCCCO2` [Compound 1364], the inhibition at 0.3 µM (symbols + to ++++) lay within 0 to 25%.

As for `O=C(Nc1cccc2c(=O)n(CCCN3CCCC3=O)ccc12)c1ccc(-c2ccccc2)o1` [Compound 1496], the inhibition lay in the range of 0 to 25%.

For the compound `Cc1cccc(CC(=O)Nc2cccc3c(=O)n(Cc4ccc(OC(F)(F)F)cc4)ccc23)c1` [Compound 1582], the inhibition was 0 to 25%.

As to `Cc1cccc(C(=O)Nc2cccc3c(=O)n(CC4CCN(C)CC4)ccc23)c1C` [Compound 1461], the inhibition was in the range of 0 to 25%.

As to `Cc1c(Cl)cccc1C(=O)Nc1cccc2c(=O)n(CC(C)(C)C)ccc12` [Compound 1275], where the note is “symbols + to ++++”, the inhibition at 0.3 µM fell in the range of 0 to 25%.

For the compound `CCOc1ccccc1CC(=O)Nc1cccc2c(=O)n(CCN3CCOCC3)ccc12` [Compound 1233], the inhibition at 0.3 µM (symbols + to ++++) is 0 to 25%.

In the case of `Cc1ccc(C)c(C(=O)Nc2cccc3c(=O)n(Cc4ccc(OC(F)(F)F)cc4)ccc23)c1` [Compound 1565], the inhibition lay within 0 to 25%.

For `Cc1cccc(C(=O)Nc2cccc3c(=O)n(C)ccc23)c1C` [Compound 1289], the inhibition at 0.3 µM (symbols + to ++++) was 0 to 25%.

As to `Cc1ccc(C(=O)Nc2cccc3c(=O)n(Cc4ccc(OC(F)(F)F)cc4)ccc23)cc1Cl` [Compound 1591], the inhibition lay in the range of 0 to 25%.

For `CC(=O)OCCn1ccc2c(NC(=O)Cc3cc(C(F)(F)F)cc(C(F)(F)F)c3)cccc2c1=O` [Compound 1378], inhibition was half-maximal at 121 nM (IC50). Also, the inhibition at 0.3 µM (symbols + to ++++) lay in the range of 51 to 75%.

Turning to `Cc1cccc(CC(=O)Nc2cccc3c(=O)n(CCCN4CCCC4=O)ccc23)c1` [Compound 1521], the inhibition lay in the range of 0 to 25%.

Compound `CC1(C)CCCC(O)(CC(=O)Nc2cccc3c(=O)n(CCS(C)(=O)=O)ccc23)C1` (stereo not shown) [Compound 1629] yielded an IC50 of 457 nM. In addition, the inhibition at 0.3 µM ("+" class symbols) lay within 26 to 50%.

Turning to `O=C(CCc1ccccc1Cl)Nc1cccc2c(=O)n(Cc3cccnc3)ccc12` [Compound 1079], the inhibition at 0.3 µM ('+' class symbols) lay within 0 to 25%.

Regarding `COc1ccc(CC(=O)Nc2cccc3c(=O)n(CCN(C)C)ccc23)cc1` [Compound 1001], the midpoint of inhibition, the IC50, lay at 240 nM. Moreover, for the setting “'+' class symbols”, the inhibition at 0.3 µM lay in the range of 51 to 75%.

Consider `O=C(Nc1cccc2c(=O)n(Cc3ccc(OC(F)(F)F)cc3)ccc12)c1cc(Cl)ccc1Cl` [Compound 1561], for which the inhibition fell in the range of 0 to 25%.

For `COc1ccc(CC(=O)Nc2cccc3c(=O)n(CCCN4CCCC4=O)ccc23)cc1OC` [Compound 1520], the inhibition is 0 to 25%.

`COc1ccc(CC(=O)Nc2cccc3c(=O)n(Cc4cccnc4)ccc23)cc1` [Compound 1355]: under “symbols + to ++++”, the inhibition at 0.3 µM is 0 to 25%.

Turning to `CC(C)(C)Cn1ccc2c(NC(=O)Cc3ccccc3F)cccc2c1=O` [Compound 1252], the inhibition at 0.3 µM (symbols + to ++++) was in the range of 0 to 25%.

With `Cc1ccc(C(=O)Nc2cccc3c(=O)n(CC4CCN(C)CC4)ccc23)c(C)c1` [Compound 1462], the inhibition lay in the range of 0 to 25%.

Turning to `COCCn1ccc2c(NC(=O)CCc3ccccc3C)cccc2c1=O` [Compound 1062], the inhibition at 0.1 µM ('*' class symbols, read-out: IL-1β % Inhib. (asterisk classes, 0.1 μM)) lay within 26 to 50%.

As for `Cc1cc(C(=O)Nc2cccc3c(=O)n(Cc4cccnc4)ccc23)ccc1F` [Compound 1454], the inhibition was 0 to 25%.

For the compound `CC(C(=O)Nc1cccc2c(=O)n(CC3CCOCC3)ccc12)c1ccccc1` (stereo not shown) [Compound 1093], the inhibition at 0.3 µM ('+' class symbols) lay within 0 to 25%.

In the case of `CCOc1ccc(C(=O)Nc2cccc3c(=O)n(CCN4CCOCC4)ccc23)c(O)c1` [Compound 1403], the inhibition lay within 0 to 25%.

`CCC(C(=O)Nc1cccc2c(=O)n(CCN(C)C)ccc12)c1ccccc1` (stereo not shown) [Compound 1020]: the half-inhibitory concentration (IC50) was > 1000 nM. Besides, the inhibition at 0.3 µM ('+' class symbols) was in the range of 0 to 25%.

Consider `CC(=O)OCCn1ccc2c(NC(=O)Cc3cc(C(F)(F)F)ccc3C(F)(F)F)cccc2c1=O` [Compound 1382], for which half-maximal inhibition (IC50) was put at 602 nM. Also, the inhibition at 0.3 µM (symbols + to ++++) was in the range of 26 to 50%.

With `Cc1cccc(C(=O)Nc2cccc3c(=O)n(CCN(C)C)ccc23)c1` [Compound 1145], the inhibition at 0.3 µM ('+' class symbols) lay within 0 to 25%.

Turning to `CN(C)CCn1ccc2c(NC(=O)Cc3ccccc3Br)cccc2c1=O` [Compound 1613], the half-inhibitory concentration (IC50) is > 1000 nM. In addition, the inhibition at 0.3 µM ("+" class symbols) is 0 to 25%.

For `O=C(Nc1cccc2c(=O)n(Cc3ccc(OC(F)(F)F)cc3)ccc12)c1ccc2ccccc2c1` [Compound 1574], the inhibition fell in the range of 0 to 25%.

For `CC(C)(C)c1ccc(C(=O)Nc2cccc3c(=O)n(Cc4cccnc4)ccc23)cc1` [Compound 1446], the inhibition lay in the range of 0 to 25%.

As to `Cc1ccc(C)c(CC(=O)Nc2cccc3c(=O)n(CC4CCOCC4)ccc23)c1` [Compound 1028], the inhibition at 0.3 µM ('+' class symbols) lay in the range of 0 to 25%.

Consider `Cc1ccc(C(=O)Nc2cccc3c(=O)n(CCCN4CCCC4=O)ccc23)cc1Cl` [Compound 1530], for which the inhibition was 26 to 50%.

Consider `COc1cc(OC)cc(C(=O)Nc2cccc3c(=O)n(Cc4ccc(OC(F)(F)F)cc4)ccc23)c1` [Compound 1566], for which the inhibition lay within 26 to 50%.

In the case of `COCCn1ccc2c(NC(=O)c3cccc4ccccc34)cccc2c1=O` [Compound 1312], the inhibition at 0.3 µM (symbols + to ++++) fell in the range of 0 to 25%.

In the case of `O=C(Cc1csc2ccccc12)Nc1cccc2c(=O)n(Cc3cccnc3)ccc12` [Compound 1453], the inhibition is 0 to 25%.

Consider `O=C(CCc1ccccc1Cl)Nc1cccc2c(=O)n(CCN3CCOCC3)ccc12` [Compound 1045], for which, for the setting “'+' class symbols”, the inhibition at 0.3 µM lay in the range of 0 to 25%.

For the compound `Cc1ccc(C(=O)Nc2cccc3c(=O)n(Cc4ccc(OC(F)(F)F)cc4)ccc23)c(C)c1` [Compound 1564], the inhibition fell in the range of 0 to 25%.

In the case of `Cn1ccc2c(NC(=O)Cc3ccccc3F)cccc2c1=O` [Compound 1294], the inhibition at 0.3 µM (symbols + to ++++) lay within 0 to 25%.

For the compound `COc1ccc(C(=O)Nc2cccc3c(=O)n(CC(C)(C)C)ccc23)cc1C` [Compound 1418], the inhibition fell in the range of 0 to 25%.

On to `COc1ccc(C(=O)Nc2cccc3c(=O)n(Cc4ccc(OC(F)(F)F)cc4)ccc23)cc1C` [Compound 1608], for which, under setting [1], the inhibition at 0.1 µM was 0 to 25%.

Consider `Cc1cc(C)cc(CC(=O)Nc2cccc3c(=O)n(CCN(C)C)ccc23)c1` [Compound 1173], for which, for the setting “'+' class symbols”, the inhibition at 0.3 µM lay in the range of 0 to 25%.

As to `O=C(Nc1cccc2c(=O)n(CCN3CCOCC3)ccc12)c1ccccc1Cl` [Compound 1188], the inhibition at 0.3 µM ('+' class symbols) lay in the range of 0 to 25%.

Take `Cc1ccc(C(=O)Nc2cccc3c(=O)n(CC(C)(C)C)ccc23)cc1Cl` [Compound 1268]: the inhibition at 0.3 µM (symbols + to ++++) fell in the range of 0 to 25%.

As to `CC(C(=O)Nc1cccc2c(=O)n(CCN3CCOCC3)ccc12)c1ccccc1` (stereo not shown) [Compound 1200], under “symbols + to ++++”, the inhibition at 0.3 µM fell in the range of 0 to 25%.

For `COc1ccc(CC(=O)Nc2cccc3c(=O)n(CCN4CCOCC4)ccc23)cc1OC` [Compound 1210], where the note is “symbols + to ++++”, the inhibition at 0.3 µM lay in the range of 0 to 25%.

`COCCn1ccc2c(NC(=O)CCc3ccccc3Cl)cccc2c1=O` [Compound 1069]: the inhibition at 0.3 µM ('+' class symbols) was ≥ 76%.

In the case of `CCOc1cccc(C(=O)Nc2cccc3c(=O)n(CCOC)ccc23)c1` [Compound 1068], the inhibition at 0.3 µM ('+' class symbols) fell in the range of 0 to 25%.

As to `COc1cccc(CCC(=O)Nc2cccc3c(=O)n(CCN(C)C)ccc23)c1` [Compound 1400], the inhibition fell in the range of 26 to 50%.

For the compound `CN(C)CCn1ccc2c(NC(=O)Cc3ccc(Cl)cc3)cccc2c1=O` [Compound 1004], the IC50 stood at 108 nM. Besides, for the setting “'+' class symbols”, the inhibition at 0.3 µM is ≥ 76%.

Turning to `Cn1ccc2c(NC(=O)CCc3cccc(Cl)c3)cccc2c1=O` [Compound 1309], for the setting “symbols + to ++++”, the inhibition at 0.3 µM was ≥ 76%.

`COc1c(C)cc(C(=O)Nc2cccc3c(=O)n(CCN4CCOCC4)ccc23)cc1C` [Compound 1219]: the inhibition at 0.3 µM (symbols + to ++++) lay within 26 to 50%.

Regarding `O=C(Nc1cccc2c(=O)n(Cc3cccnc3)ccc12)c1ccc2ccccc2c1` [Compound 1448], the inhibition was 0 to 25%.

One may read the IC50 as the concentration at which inhibition is half-maximal.
